In patent US20260199493A1 (priority 2021, published 2026):
Like-named read-outs stand apart in the source and are kept apart here. Starred links: 1 amine or outer side, 2 acyl side, 3 side chain; linkers in the order of their positions; H or OH if unused. Non-standard residues stand in square brackets, D forms with d. Residues, ends and D or L forms follow the SMILES beside them. Groups on a side chain read outwards from the residue. *: point of attachment. X1 = NC(=O)[C@H](CCCCNC(=O)COCCOCCNC(=O)CCC(=O)NCCOCCOCCCCCCCl)N*; Ala(piperidin-4-yl) = O=C([C@H](CC1CCN([*:3])CC1)N[*:1])[*:2]; Phe(4-guanidino) = N=C(N)Nc1ccc(C[C@H](N)C(=O)O)cc1; 2Nal = N[C@@H](Cc1ccc2ccccc2c1)C(=O)O; Lys(Me2) = CN(C)CCCC[C@H](N)C(=O)O; hArg = N=C(N)NCCCC[C@H](N)C(=O)O; Cit = NC(=O)NCCC[C@H](N)C(=O)O; Agb = N=C(N)NCC[C@H](N)C(=O)O; Agp = N=C(N)NC[C@H](N)C(=O)O; PEG4 = NCCOCCOCCOCCOCCC(=O)O

How the values were obtained:
[1] = test system: HaloTag-ActA fusion protein; assay: Chloroalkane penetration assay (HaloTag); assay type: cell-based; conditions: HEK293-HaloTag cells, chloroalkane-tagged peptide, 24 h with FBS, then 5 μM TMR-ct
Source text: Assay design. HEK293 cells were produced that stably express a HaloTag-ActA fusion protein (“HEK293-HaloTag”) which ensures fusion protein localization to the outer mitochondrial membrane with exposure to the cytosol. The HaloTag protein rapidly reacts covalently with short chloroalkane-containing compounds, occupying the active site and preventing further reactions. The chloroalkane penetration assay utilizes this reactivity in a pulse-chase assay where cells are first treated with cCPPs-chloroalkane of interest, followed by incubation with cell-permeable fluorescent dye tetramethylrhodamine-chloroalkane (“TMR-ct”). If cCPPs have gained access to the cytosol, they will react with HaloTag and prevent it from reacting with TMR-ct. The relative cell-penetrating efficiency of compounds can therefore be determined by their ability to reduce cellular TMR fluorescence after a washout period with this value expressed as IC50.
Cell penetrating peptides. Cell penetrating peptides having the sequences indicated in Table 13 (below) were functionalized on the lysine residue with a chloroalkane tag of the sequence N^1-(2-(2-((5-chlorohexyl)oxy)ethoxy)ethyl-N^4-(2-(2-(2-oxoethoxy)ethoxy)ethyl)succinamide (referred to as “chloroalkane” in Table 13), purified, and prepared as stock solutions in DMSO with concentration determined by A280 or weight as applicable.
Determination of cell-penetrating efficiency. Compounds to be evaluated were prepared as stock solutions in DMSO and diluted in PBS before addition to HEK293-HaloTag ells as a serial dilution from 30 μM to 0.5 nM. Cells were incubated with the compounds at a given concentration for 24 h in the presence of FBS at 37° C. After incubation, cells were washed thoroughly with PBS and to the cells was added fresh, serum-free media containing 5 μM TMR-ct and incubated for 30 min. After incubation, the cells were washed and incubated in fresh media to wash-out any unreacted TMR-ct. Cells were then imaged and quantified for cellular fluorescence using high-content imaging. Values are normalized to vehicle-treated cells and an IC50 calculated using a 4-parameter logarithmic fit in GraphPad PRISM v.8.

[2] = test system: exon 44 of human dystrophin mRNA; assay: Exon 44 skipping by RT-PCR in hDMD mice; assay type: in vivo; conditions: hDMD mice, 5 days
Description: The hemizygous mice were further genotyped at Transnetyx. All groups were dosed 5 mL/kg per animal by intravenous (iv) injection and sacrificed after 5 days post injection. All animals were euthanized by CO2 asphyxiation followed by terminal blood collection via cardiac puncture. Maximum obtainable volume of whole blood was collected into lithium heparin tubes and processed to plasma. A portion of plasma was analyzed for clinical chemistries by the Testing Facility (IDEXX) and the rest stored frozen at nominally −70° C. […] Animals were age matched and assigned into eight (8) treatment groups according to Table 15. […] All animals survived until their scheduled euthanasia time. Tissues were collected per protocol. The amount of AC and a cCPP-AC in various tissue samples was quantified by LC-MS. Exon skipping in different tissues were analyzed by RT-PCR and the quantification of exon 44 correction.
Exon Skipping Analysis by RT-PCR: hDMD mice and NHP express full-length human dystrophin mRNA. The delivery of AC can alter the splicing and result in a shortened dystrophin mRNA after exon 44 skipping. The tissues were homogenized using 1 mL of RLT lysis buffer (Qiagen, Cat #79216). The detection of splicing correction process was measured by RT-PCR where extracted RNAs from tissues were first reverse-transcribed into cDNA and further analyzed by one step RT-PCR using the following primer set: forward primer 5′-[…]-3′ (SEQ ID NO: 262) and reverse primer 5′-[…]-3′ (SEQ ID NO: 263). […] Quantification of the relative intensity of the bands corresponding to skipped and unskipped transcripts were performed to assess AC-induced exon-44-skipping efficacy. The degree (percentage) of splicing correction detected by RT-PCR was calculated using the following equation: % correction=(intensity of 493 bp fragment band)/(intensity of 493 bp fragment band+intensity of 641 bp fragment band).

[3] = MDX mice, single IV 20 mg/kg, day 5

N=C(N)NCCC[C@H]1NC(=O)[C@H](CCCNC(N)=O)NC(=O)[C@@H](CCCNC(=N)N)NC(=O)[C@H](CCCNC(N)=O)NC(=O)[C@H](Cc2ccc3ccccc3c2)NC(=O)[C@@H](Cc2ccccc2)NC(=O)[C@H](Cc2ccccc2)NC(=O)[C@H](CCC(=O)NCCOCCOCCOCCOCCC(=O)N[C@@H](CCCCNC(=O)COCCOCCNC(=O)CCC(=O)NCCOCCOCCCCCCCl)C(N)=O)NC1=O [Compound 1a, cyclo(FfΦ-Cit-r-Cit-rQ)-PEG4-K-NH2] (cyclo([2Nal][Cit][dR][Cit][dR]E([PEG4-X1])F[dF]))
IC50 [1]: 849 nM

N=C(N)NCCC[C@H]1NC(=O)[C@H](CC2CCNCC2)NC(=O)[C@@H](CCCNC(=N)N)NC(=O)[C@H](CC2CCNCC2)NC(=O)[C@H](Cc2ccc3ccccc3c2)NC(=O)[C@@H](Cc2ccccc2)NC(=O)[C@H](Cc2ccccc2)NC(=O)[C@H](CCC(=O)NCCOCCOCCOCCOCCC(=O)N[C@@H](CCCCNC(=O)COCCOCCNC(=O)CCC(=O)NCCOCCOCCCCCCCl)C(N)=O)NC1=O [Compound 2a, cyclo(FfΦ-Pia-r-Pia-rQ)-PEG4-K-NH2] (cyclo([2Nal][Ala(piperidin-4-yl)][dR][Ala(piperidin-4-yl)][dR]E([PEG4-X1])F[dF]))
IC50 [1]: 881 nM

CN(C)CCCC[C@@H]1NC(=O)[C@H](Cc2ccc3ccccc3c2)NC(=O)[C@@H](Cc2ccccc2)NC(=O)[C@H](Cc2ccccc2)NC(=O)[C@H](CCC(=O)NCCOCCOCCOCCOCCC(=O)N[C@@H](CCCCNC(=O)COCCOCCNC(=O)CCC(=O)NCCOCCOCCCCCCCl)C(N)=O)NC(=O)[C@@H](CCCNC(=N)N)NC(=O)[C@H](CCCCN(C)C)NC(=O)[C@@H](CCCNC(=N)N)NC1=O [Compound 3a, cyclo(FfΦ-Dml-r-Dml-rQ)-PEG4-K-NH2] (cyclo(F[dF][2Nal][Lys(Me2)][dR][Lys(Me2)][dR]E([PEG4-X1])))
IC50 [1]: 932 nM

N=C(N)NCCC[C@H]1NC(=O)[C@H](CNC(=N)N)NC(=O)[C@@H](CCCNC(=N)N)NC(=O)[C@H](CNC(=N)N)NC(=O)[C@H](Cc2ccc3ccccc3c2)NC(=O)[C@@H](Cc2ccccc2)NC(=O)[C@H](Cc2ccccc2)NC(=O)[C@H](CCC(=O)NCCOCCOCCOCCOCCC(=O)N[C@@H](CCCCNC(=O)COCCOCCNC(=O)CCC(=O)NCCOCCOCCCCCCCl)C(N)=O)NC1=O [Compound A, cyclo(FfΦ-Agp-r-Agp-rQ)-PEG4-K-NH2] (cyclo([2Nal][Agp][dR][Agp][dR]E([PEG4-X1])F[dF]))
IC50 [1]: 626 nM

N=C(N)NCCC[C@H]1NC(=O)[C@H](CCNC(=N)N)NC(=O)[C@@H](CCCNC(=N)N)NC(=O)[C@H](CCNC(=N)N)NC(=O)[C@H](Cc2ccc3ccccc3c2)NC(=O)[C@@H](Cc2ccccc2)NC(=O)[C@H](Cc2ccccc2)NC(=O)[C@H](CCC(=O)NCCOCCOCCOCCOCCC(=O)N[C@@H](CCCCNC(=O)COCCOCCNC(=O)CCC(=O)NCCOCCOCCCCCCCl)C(N)=O)NC1=O [Compound B, cyclo(FfΦ-Agb-r-Agb-rQ)-PEG4-K-NH2] (cyclo([2Nal][Agb][dR][Agb][dR]E([PEG4-X1])F[dF]))
IC50 [1]: 695 nM

N=C(N)NCCCC[C@@H]1NC(=O)[C@H](Cc2ccc3ccccc3c2)NC(=O)[C@@H](Cc2ccccc2)NC(=O)[C@H](Cc2ccccc2)NC(=O)[C@H](CCC(=O)NCCOCCOCCOCCOCCC(=O)N[C@@H](CCCCNC(=O)COCCOCCNC(=O)CCC(=O)NCCOCCOCCCCCCCl)C(N)=O)NC(=O)[C@@H](CCCNC(=N)N)NC(=O)[C@H](CCCCNC(=N)N)NC(=O)[C@@H](CCCNC(=N)N)NC1=O [Compound C, cyclo(FfΦ-hR-r-hR-rQ)-PEG4-K-NH2] (cyclo([2Nal][hArg][dR][hArg][dR]E([PEG4-X1])F[dF]))
IC50 [1]: 786 nM

N=C(N)NCCC[C@H]1NC(=O)[C@H](Cc2ccc(NC(=N)N)cc2)NC(=O)[C@@H](CCCNC(=N)N)NC(=O)[C@H](Cc2ccc(NC(=N)N)cc2)NC(=O)[C@H](Cc2ccc3ccccc3c2)NC(=O)[C@@H](Cc2ccccc2)NC(=O)[C@H](Cc2ccccc2)NC(=O)[C@H](CCC(=O)NCCOCCOCCOCCOCCC(=O)N[C@@H](CCCCNC(=O)COCCOCCNC(=O)CCC(=O)NCCOCCOCCCCCCCl)C(N)=O)NC1=O [Compound D, cyclo(FfΦ-4gp-r-4gp-rQ)-PEG4-K-NH2] (cyclo([2Nal][Phe(4-guanidino)][dR][Phe(4-guanidino)][dR]E([PEG4-X1])F[dF]))
IC50 [1]: 695 nM

CCOCc1nc2c(N)nc3ccccc3c2n1CC(C)(C)O [Compound R848, reference compound]
IRF5 protein expression (IRF5 protein): significantly increases IRF5 Protein expression

N=C(N)NCCC[C@@H]1NC(=O)[C@H](Cc2ccc3ccccc3c2)NC(=O)[C@@H](Cc2ccccc2)NC(=O)[C@H](Cc2ccccc2)NC(=O)[C@H](CCC(=O)NCCOCCOCCOCCOCCC(=O)N[C@@H](CCCCNC(=O)COCCOCCNC(=O)CCC(=O)NCCOCCOCCCCCCCl)C(N)=O)NC(=O)[C@@H](CCCNC(=N)N)NC(=O)[C@H](CCCNC(=N)N)NC(=O)[C@@H](CCCNC(=N)N)NC1=O [EEV12, cyclo(FfΦRrRrQ)-PEG4-K(chloroalkane)-NH2, reference compound] (cyclo([2Nal]R[dR]R[dR]E([PEG4-X1])F[dF]))
IC50 [1]: 792 nM

Ac-KBK-AEEA-K(cyclo[FGFGRGRQ])-AEEA-K(N3)-NH2 [EEV-PMO-MDX-5]
exon skipping in heart vs diaphragm, tibialis anterior, triceps (exon 23 of DMD; mouse, in vivo, iv, 20 mg/kg): a lower level of exon skipping in heart tissue

Ac-PKKKRKV-AEEA-K(cyclo[FGFGRGRQ])-AEEA-K(N3)-NH2 [EEV-PMO-MDX-4]
exon skipping in heart vs diaphragm, tibialis anterior, triceps (exon 23 of DMD; [3]): a lower level of exon skipping in heart tissue

Ac-PKKKRKV-AEEA-K(cyclo[FGFGRGRQ])-PEG12-OH [EEV-PMO-IRF5-1]
IRF-5 protein expression compared to cells stimulated with R848 (IRF5 protein; RAW 264.7 cells, all tested concentrations): significant reduction in IRF-5 protein expression | IRF5 protein levels (IRF5 protein; mouse macrophage cells, 30 μM, 10 μM and 3 μM): statistically significant reduction of IRF5 protein levels

Ac-PKKKRKV-AEEA-K(cyclo[FfFGRGRQ])-AEEA-K(N3)-NH2 [EEV-PMO-MDX-7]
exon skipping in heart vs diaphragm, tibialis anterior, triceps (exon 23 of DMD; [3]): a lower level of exon skipping in heart tissue

Ac-PKKKRKV-AEEA-K(cyclo[GfFGrGrQ])-AEEA-K(N3)-NH2 [EEV-PMO-MDX-6]
exon skipping in heart vs diaphragm, tibialis anterior, triceps (exon 23 of DMD; [3]): a lower level of exon skipping in heart tissue

Ac-PKKKRKV-AEEA-K(cyclo[GfFGrGrQ])-PEG12-OH [EEV-PMO-DMD44-2]
exon skipping ([2]; 10 mpk IV, Diaphragm): 14% | exon skipping ([2]; 10 mpk IV, TiA): 22% | exon skipping ([2]; 10 mpk IV, Triceps): 17% | exon skipping ([2]; 10 mpk IV, heart): 0% | exon skipping ([2]; 20 mpk IV, Diaphragm): 35% | exon skipping ([2]; 20 mpk IV, TiA): 58% | exon skipping ([2]; 20 mpk IV, Triceps): 44 | exon skipping ([2]; 20 mpk IV, heart): 2% | exon skipping ([2]; 40 mpk IV, Diaphragm): 83% | exon skipping ([2]; 40 mpk IV, TiA): 95% | exon skipping ([2]; 40 mpk IV, Triceps): 92% | exon skipping ([2]; 40 mpk IV, heart): 17% | exon skipping ([2]; 80 mpk IV, Diaphragm): 99% | exon skipping ([2]; 80 mpk IV, TiA): 99% | exon skipping ([2]; 80 mpk IV, Triceps): 98% | exon skipping ([2]; 80 mpk IV, heart): 79% | minimum efficacious dose in the heart ([2]; IV): 40 mpk
